Source: patent US20110150769A1, “IDENTIFICATION AND USE OF COMPOUNDS FOR TREATING PERSISTENT PAIN” (priority 2009, published 2011)

What was measured:
[1] = tested on: DRG neurons; test: Calcium imaging of cultured DRG neurons; assay type: cell-based, mouse; conditions: for percentage of DRG neurons responding, WT vs MrgprA1GFP/GFP mice: comparison of WT and MrgprA1GFP/GFP mice
Procedure: Calcium Imaging of Cultured Dorsal Root Ganglia (DRG) Neurons
DRG neurons were plated on poly-D-lysine/laminin-coated coverslips and cultured for 24 hours. […] Briefly, neurons were loaded with Fura 2-acetomethoxy ester (Molecular Probes) for 30 min in dark at room temperature. After washing, neurons were imaged at 340/380 nm excitation to detect intracellular free calcium. All tests were performed with an experimenter blinded to the genotype.

[2] = tested on: small-diameter primary sensory neurons (DRG neurons); test: Whole-cell recordings of cultured DRG neurons (evoked action potentials); assay type: cell-based, mouse
Procedure: Whole-Cell Voltage-Clamp Recordings of Cultured DRG Neurons
Dissociated DRG neurons were plated on coverslips and cultured for 2-7 hours. For clamp recording, coverslips were perfused with extracellular solution (ECS) consisting of (in mM): NaCl 140, KCl 4, CaCl2 2, MgCl2 2, HEPES 10, Glucose 5, with pH adjusted to 7.38 using NaOH. Neurons with cell body diameters between 22 and 25 μm were recorded in the whole-cell voltage-clamp configuration with electrodes (pipette solution in mM: KCl 135, MgATP 3, Na2ATP 0.5, CaCl2 1.1, EGTA 2, Glucose 5, pH adjusted to 7.38) using an Axon 700B amplifier and the pCLAMP 9.2 software package (Axon Instruments). Electrodes were pulled (Narishige, Model pp-830) from borosilicate glass (WPI, Inc), and after filling they had resistances of 2-4 MΩ. Neurons were perfused with […] FMRFamide for 30 seconds and washed for 3 minutes. Action potentials were elicited with prolonged injections (500 ms) of a depolarizing current (200 pA) before and after FMRFamide treatment. All experiments were performed at room temperature with an experimenter blinded to the genotype.

[3] = adult mutant (Mrgpr-clusterΔ−/−) DRG neurons

| Substance | responses in DRG neurons [1, 3] | percentage of DRG neurons responding, WT vs MrgprA1GFP/GFP mice [1] | responses in DRG neurons ([1]; newborn Mrgpr-clusterΔ−/− mice) | firing rate ([2]; Mrgpr-deficient neurons) | number of action potentials evoked by injection of depolarizing current ([2]; WT DRG neurons, current-clamp) | cells with sensitizing effect / cells recorded ([2]; WT adult DRG neurons, cell body diameter 22 to 25 μm) | average number of action potentials after treatment ([2]; WT neurons, n=10, 500 ms, 200 pA depolarizing current, before treatment 3.6±1.6) | cells with sensitizing effect / cells recorded ([2]; neurons from Mrgpr-clusterΔ−/− mice) |
| --- | --- | --- | --- | --- | --- | --- | --- | --- |
| FMRFamide | no responses | did not differ significantly | few or no responses | did not show an increase in firing rate | significant increase | 10 of 23 | 7.7±1.9 | 1 of 20 |
| NPFF | no responses | did not differ significantly | few or no responses | – | – | – | – | – |
